# According to patent publication US20120009674A1, “Use of a GSK-3 Inhibitor to Maintain Potency of Cultured Cells” (ABT Holding Company, priority 2005, published 2012):
# Key:
# [1] = Stability of BIO in culture, expansion media without cells (mass spectroscopy); format: physicochemical; conditions: absence of cells, 72-hour period, 1 μM BIO, 37° C., 18% O2, 5% CO2, expansion media
# Oct-3A = experiment: Western blot of Oct-3A protein in BIO treated MAPCs; format: cell-based, human; conditions: BIO treated vs untreated MAPCs from the same donor, FIG. 3
# [2] = system: mouse embryonic stem (ES) cell; conditions: mouse ES cells; Oct-3a, Rex-1 and Nanog expression; cited from earlier work
# [3] = system: human embryonic stem (ES) cell; conditions: human ES cells; Oct-3a, Rex-1 and Nanog expression; cited from earlier work
# CDK2-cyclin A = CDK2-cyclin A (Homo sapiens, UniProt P24941); conditions: at 10 μM; cited from earlier work
# [4] = system: mouse mesodermal stem cell line; conditions: Chen, S., et al. (2003); cited from earlier work
structure (smiles),measurement,setting,value
"O=C1Nc2cc(Br)ccc2/C1=C1/Nc2ccccc2/C1=N\O [BIO, 6-bromoindirubin-3′-oxime]",BIO stable (native BIO remaining),[1],approximately 95%
same,Oct-3A protein level (Western blot),Oct-3A,increases or protects the amount of detectable Oct-3A
same,maintenance of ES cultures in an undifferentiated pluripotent state,[2],able to substitute for the addition of feeder cultures or addition of exogenous cytokines in maintaining the ES cultures in an undifferentiated pluripotent state
same,maintenance of ES cultures in an undifferentiated pluripotent state,[3],able to substitute for the addition of feeder cultures or addition of exogenous cytokines in maintaining the ES cultures in an undifferentiated pluripotent state
CN(C)CCC(=O)Nc1n[nH]c2nnc(-c3ccccc3)cc12 [Pyrazolopyridine 9],Inhibits CDK2-cyclin A,CDK2-cyclin A,A (90% at 10 μM)
CCCC(=O)Nc1n[nH]c2ncc(-c3ccccc3F)cc12 [Pyrazolopyridine 18],Inhibits CDK2-cyclin A,CDK2-cyclin A,A (95% at 10 μM)
c1nc2nc(Nc3ccc(N4CCOCC4)cc3)nc(NC3CCCCC3)c2[nH]1 [reversine],de-differentiation of committed myoblast,[4],"acted to “de-differentiate” the cell line from a committed myoblast, back to the multipotent precursor"
